Data reported in the supplement of paper PMC10307832.

Experiments:
Test in all cases: relative viability (nuclei count vs DMSO), 5 days (fraction); higher = more cells survive
[1] = compound: C1CNCCC1C2=CC(=NN2)C3=CC=NC=C3 + Cc1nc(NC(=O)N2CCC[C@H]2C(N)=O)sc1-c1ccnc(C(C)(C)C(F)(F)F)c1 [Alpelisib] (partner 2 µM)
Method in brief: (§1)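 Cells from lung cancer lines were seeded into 1536-well plates and, one day later, dosed by pin tool. Treatments were either a single drug or a fixed dose of an anchor drug with five library-drug doses (not always all listed) in √10 steps. After 5 days, nuclei were stained in a one-step fixation (final 0.05% Triton X-100, 1% formaldehyde, 1 ug/ml Hoechst) and counted on 4× images, and relative viability is the treated-to-vehicle nuclei ratio, as the median of duplicate plates.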

[2] = compound: C[C@@H](N)c1ccc(C(=O)Nc2ccnc3[nH]ccc23)cc1 + Nc1ncn([C@H]2C[C@H](O)[C@@H](CO)O2)c(=O)n1 [Decitabine] (partner 2 µM)
Method in brief: as §1

Tanzisertib + Pictilisib = compound: O[C@H]1CC[C@H](Nc2ncc3nc(Nc4c(F)cc(F)cc4F)n([C@H]4CCOC4)c3n2)CC1 [Tanzisertib] + CS(=O)(=O)N1CCN(Cc2cc3nc(-c4cccc5[nH]ncc45)nc(N4CCOCC4)c3s2)CC1 [Pictilisib] (partner 1 µM)
Method in brief: as §1

Tanzisertib + Phenformin = compound: O[C@H]1CC[C@H](Nc2ncc3nc(Nc4c(F)cc(F)cc4F)n([C@H]4CCOC4)c3n2)CC1 [Tanzisertib] + N=C(N)NC(=N)NCCc1ccccc1 [Phenformin] (partner 250 µM)
Method in brief: as §1

Cell Line	relative viability ([1]; first compound 0.08 µM)	relative viability ([1]; first compound 0.8 µM)	relative viability ([1]; first compound 2.53 µM)	relative viability ([1]; first compound 8 µM)	relative viability ([2]; first compound 0.04 µM)	relative viability ([2]; first compound 0.1265 µM)	relative viability ([2]; first compound 0.4 µM)	relative viability ([2]; first compound 1.265 µM)	relative viability ([2]; first compound 4 µM)	relative viability (Tanzisertib + Pictilisib; first compound 0.08 µM)	relative viability (Tanzisertib + Pictilisib; first compound 0.253 µM)	relative viability (Tanzisertib + Pictilisib; first compound 0.8 µM)	relative viability (Tanzisertib + Pictilisib; first compound 2.53 µM)	relative viability (Tanzisertib + Pictilisib; first compound 8 µM)	relative viability (Tanzisertib + Phenformin; first compound 0.08 µM)	relative viability (Tanzisertib + Phenformin; first compound 0.253 µM)	relative viability (Tanzisertib + Phenformin; first compound 0.8 µM)	relative viability (Tanzisertib + Phenformin; first compound 2.53 µM)	relative viability (Tanzisertib + Phenformin; first compound 8 µM)
H3255	0.674	0.646	0.858	0.734	0.603	0.747	0.67	0.67	0.481	0.548	0.452	0.487	0.457	0.253	0.413	0.371	0.387	0.349	0.231
NCI-H1792	0.637	0.519	0.773	0.618	0.571	0.558	0.489	0.675	0.462	0.307	0.261	0.29	0.231	0.243	0.233	0.467	0.544	0.38	0.475
NCI-H596	0.508	0.488	0.526	0.532	1.02	1.11	1.09	1.19	1.13	0.408	0.407	0.42	0.394	0.451	0.968	0.626	0.882	0.675	0.602
NCI-H2087	0.862	1.07	1.07	0.985	0.293	0.325	0.357	0.362	0.31	1.17	0.838	0.886	0.753	0.743	0.464	0.502	0.463	0.447	0.322
NCI-H661	0.879	0.647	0.799	0.733	0.51	0.59	0.573	0.493	0.504	0.464	0.389	0.365	0.447	0.35	0.32	0.256	0.24	0.285	0.284
EMC-BAC-2	0.755	0.659	0.72	0.758	1	0.968	1.11	1.04	0.903	0.606	0.534	0.57	0.528	0.419	0.51	0.507	0.528	0.51	0.502
NCI-H1355	0.826	0.706	0.804	0.822	0.343	0.332	0.317	0.306	0.322	0.455	0.417	0.46	0.461	0.306	0.517	0.44	0.503	0.472	0.431
NCI-H23	0.614	0.691	0.713	0.69	0.296	0.295	0.363	–	0.301	0.488	0.483	0.459	0.499	0.365	0.808	0.808	0.84	0.795	0.668
NCI-H1651	0.767	1.09	0.904	1	0.648	0.619	0.668	0.661	0.656	0.562	0.579	0.581	0.6	0.583	0.327	0.371	0.305	0.322	0.332
NCI-H1975	0.667	0.622	0.58	0.629	0.365	0.381	0.426	0.356	0.28	0.297	0.266	0.304	0.295	0.309	0.419	0.404	0.409	0.424	0.441
COR-L23	0.821	0.925	0.969	0.736	0.385	0.441	0.421	0.393	0.305	0.922	0.736	0.781	0.97	0.869	0.479	0.489	0.432	0.483	0.475
HCC-44	0.815	0.7	0.794	0.794	0.862	0.981	0.971	0.893	0.92	0.638	0.701	0.565	0.442	0.569	0.171	0.297	0.269	0.306	0.0849
LOU-NH91	0.698	0.677	0.811	0.749	0.755	0.79	0.78	0.69	0.577	0.516	0.544	0.573	0.51	0.443	0.731	0.763	0.746	0.73	0.439
NCI-H441	–	0.628	0.833	0.708	0.276	0.279	0.225	0.258	0.238	0.494	0.529	0.525	0.476	0.463	1.12	0.723	0.725	0.853	0.817
NCI-H647	0.969	1.12	1.31	1.22	0.314	0.324	0.419	0.521	0.335	0.456	0.537	0.474	0.436	0.141	0.531	0.703	0.481	0.487	0.555
NCI-H1915	1	1.06	1.07	1.09	–	0.265	0.242	–	0.235	1.19	0.958	0.946	0.95	0.732	0.4	0.355	0.364	0.365	0.291
NCI-H1734	0.684	0.618	0.768	0.706	0.477	0.506	0.53	0.52	0.462	0.534	0.405	0.45	0.454	0.382	0.469	0.406	0.356	0.387	0.334
